Data published in PMC9828254, “Identification of Dihydroorotate Dehydrogenase Inhibitors Using the Cell Painting Assay” (Chembiochem, 2022).
“Also recorded” adds a separate entry of the source.

What was measured:
[1] = test system: U2OS cells; experiment: Cell Painting assay (CPA), morphological fingerprints; assay type: cell-based, human; conditions: for BioSim [%] (biosimilarity) to IPP/CNRS-A017: reference fingerprint IPP/CNRS-A017 5 μM; for BioSim [%] (biosimilarity) to brequinar: reference fingerprint brequinar 10 μM; for biosimilarity (BioSim) to brequinar / biosimilarity (BioSim) to IPP/CNRS-A017: concentration not given, similar if biosimilarity >75 %
Experimental: Therefore, the definition of bioactivity clusters is crucial for proper hypothesis generation for uncharacterized small molecules that are subjected to the CPA and requires thorough inspection of the CPA fingerprints of reference compounds.[[2b], [9], [10]] […] For the CPA, human osteosarcoma U2OS cells were treated with compounds for 20 h prior to detection of cellular components and compartments (DNA, RNA, mitochondria, Golgi, endoplasmic reticulum (ER), actin, plasma membrane) using six different dyes. Morphological features are extracted and differences to the control (cells that were treated with DMSO) are expressed as Z scores. The CPA fingerprints used in this study compile Z scores for 579 features. […] Myxothiazol is an inhibitor of complex III of the mitochondrial electron transport chain.[15] Whereas de novo biosynthesis of pyrimidines takes place in the cytosol, DHODH is the only enzyme of the pyrimidine biosynthesis pathway that is localized at the inner mitochondrial membrane.[16] DHODH catalyzes the oxidation of dihydroorotate (DHO) to orotate by transferring electrons from DHO via the cofactor FMN to ubiquinone to yield ubiquinol. Electrons from ubiquinol are transferred further to complex III (cytochrome b,c1 complex), thereby recycling […] that is required for DHODH activity. In this way, pyrimidine biosynthesis is tightly coupled to the activity of complex III, which ensures that pyrimidine nucleotides and, thus, DNA and RNA are synthesized only if cells are supplied with sufficient amount of ATP via the mitochondrial respiratory chain. Alternatively, cells can replenish their pyrimidine pools via the salvage pathway by uptake of circulating pyrimidines.[5] Whereas proliferating cells rely on de novo pyrimidine biosynthesis to meet the high demand for nucleotides, the salvage pathway is used by resting and fully differentiated cells.[5]
The cell painting assay: The Cell Painting assay[25] was performed as described previously.[[9a], [26]] U2OS medium (5 μL) was added to each well of a 384‐well plate (PerkinElmer CellCarrier‐384 Ultra) prior to addition of 1,600 U2OS cells per well and incubation for 4 h at 37 °C. Standard stock concentration of compounds was 10 mM. […] Compounds were added to the cells using the Echo 520 acoustic dispenser (Labcyte) followed by incubation for 20 h at 37 °C. Subsequently, mitochondria were stained with 0.1 μg/μL Mito Tracker Deep Red for 30 min at 37 °C in the dark. Cells were fixed using 3.7 % formaldehyde (in PBS) for 20 min at 37 °C in the dark. Cells were washed three times using PBS before permeabilization using Triton X‐100 for 15 min 37 °C in the dark. After three additional washing steps, 25 μL of a staining solution were added to each well, which contained 1 % BSA, 5 μL/mL Phalloidin (Alexa594 conjugate, Thermo Fisher Scientific, A12381), 25 μg/mL Concanavalin A (Alexa488 conjugate, Thermo Fisher Scientific, Cat. No. C11252), 5 μg/mL Hoechst 33342 (Sigma, Cat. No. B2261‐25 mg), 1.5 μg/mL WGA‐Alexa594 conjugate (Thermo Fisher Scientific, Cat. No. W11262) and 1.5 μM SYTO 14 solution (Thermo Fisher Scientific, Cat. No. S7576). Plates were incubated for 30 min at 37 °C in the dark and washed three times with PBS. Plates were sealed and centrifuged for 1 min at 500 rpm. The plates were prepared in triplicates with shifted layouts to reduce plate effects and imaged using a Micro XL High‐Content Screening System (Molecular Devices) in 5 channels (DAPI: Ex350‐400/Em410‐480; FITC: Ex470‐500/Em510‐540; Spectrum Gold: Ex520‐545/Em560‐585; TxRed: Ex535‐585/Em600‐650; Cy5: Ex605‐650/Em670‐715) with 9 sites per well and 20× magnification (binning 2).
Generated images were processed with the CellProfiler package[27] (https://cellprofiler.org, version 3.0.0) on a computing cluster of the Max Planck Society to extract 1716 cell features. The data was then further aggregated as medians per well (9 sites→1 well), then over the three replicates.

[2] = target: T1, Human DHODH (Homo sapiens, UniProt Q02127); experiment: DHODH enzymatic assay (DCPIP reduction); assay type: biochemical; conditions: for inhibition at 10 µM: 30 min preincubation, read-out: reduction (inhibition) of in vitro DHODH activity
T1 construct: 40 μL of purified DHODH (aa31–395, final concentration: 1.25 μg/mL); made in house; host or cells: E. coli BL21 (DE3)
T1 sequence (Q02127 31-395): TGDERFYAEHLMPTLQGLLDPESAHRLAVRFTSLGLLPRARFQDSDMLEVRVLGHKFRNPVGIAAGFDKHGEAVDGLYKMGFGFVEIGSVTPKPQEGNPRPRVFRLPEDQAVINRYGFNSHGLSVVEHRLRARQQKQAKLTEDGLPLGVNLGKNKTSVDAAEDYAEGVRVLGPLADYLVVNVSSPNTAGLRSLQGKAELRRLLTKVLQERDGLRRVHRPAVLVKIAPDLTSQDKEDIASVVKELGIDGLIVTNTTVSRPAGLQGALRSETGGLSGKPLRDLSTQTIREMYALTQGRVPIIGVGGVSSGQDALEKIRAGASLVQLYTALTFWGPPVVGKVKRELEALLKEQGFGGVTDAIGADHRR
Experimental: Expression was induced by adding 0.8 mM IPTG (AppliChem, A1008,0025) and temperature was reduced to 28 °C for 6 hours. […] The clarified supernatant was loaded to the column and washed with PBS (1 mL/min) for 2 h, followed by elution with 10 mM L‐glutathione (Sigma Aldrich, G4251) in PBS. The GST tag was not removed for further analysis. Factions containing hDHODH‐GST protein were pooled, concentrated with centrifugal filters (Ultra‐50 K, Merck Millipore, UFC905096) and shock‐frozen for further analysis. Protein concentration was determined by Bradford measurement.
DHODH enzymatic assay: Enzymatic activity of DHODH was assessed by monitoring the reduction of 2,6‐dichlorophenolinindophenol (DCPIP), which is coupled to the oxidation of dihydroorotate by DHODH. […] The reaction was initiated by adding 50 μL mastermix (2 mM L‐dihydroorotic acid, 0.2 mM decylubiquonone, 0.12 mM 2,6 dichlorphenolindophenol (DCPIP) in assay buffer). DCPIP reduction was monitored at λ=600 nm using Tecan Spark plate reader for 20 min.

[3] = test system: U2OS cells; parameters: method as in earlier work; conditions: ref 9b; cited from earlier work
[4] = test system: U2OS cells; conditions: 100 μM uridine
Experimental: (§1) DHODH rescue assay: 2,000 HCT116 or U2OS cells per well were seeded in a clear 96‐well plate and incubated as described above overnight prior to treatment. The next day, the medium was replaced by fresh compound or DMSO containing medium supplemented with control solvent or uridine (100 μM), OA (1.5 mM) or DHO (1.5 mM). Cell growth was monitored every 2 h for a total of 96 h after treatment start using an IncuCyte S3 (Essen BioScience). The cell confluence was quantified as a measure of cell growth using the IncuCyte S3 software (Essen BioScience).

[5] = test system: HCT116 cells; experiment: DHODH rescue assay / cell growth (cell confluence, IncuCyte); assay type: cell-based; conditions: for rescue of cell growth by uridine: 100 μM uridine, 96 h; for rescue of cell growth by orotate (OA): 1.5 mM OA; for influence on cell growth (cell confluence): monitored over 96 h
Experimental: Figure 3 Influence of compounds on cell growth and DHODH activity. (A–C) HCT116 cells were treated with the compounds or DMSO as a control in presence or absence of 100 μM uridine. Cell confluence as a measure of cell growth was monitored over 96 h using IncuCyte ZOOM/S3. (A) Brequinar (BRQ). (B) Myxothiazol (MXT). […] (D–E) In vitro DHODH activity. […] (F) Influence of compound 7 on complex III activity. All data are mean values of three biological replicates (n=3)±SD.
as §1

[6] = Homo sapiens, U2OS, Conc 10 μM, 20 h, read-out: Cell count [%]
[7] = Conc 10 μM, 20 h, percentage of significantly altered features
[8] = 96 h, 2, 6, 7 at 10 μM, 4 at 30 μM
[9] = complex III inhibitors, Figure S8, concentration not given

| SMILES | viability at 10 µM [1, 6] | inhibition at 10 µM ([2]; 10 μM compound) | rescue of cell growth by uridine [5] | rescue of cell growth by orotate (OA) [5, 8] | biosimilarity (BioSim) to brequinar [1] | influence on cell growth (cell confluence) [5] | influence on in vitro DHODH activity, in words ([2]; 10 μM compound) | also measured |
| --- | --- | --- | --- | --- | --- | --- | --- | --- |
| O=C(Nc1cccnc1)N1Cc2cccc(c2)CN(S(=O)(=O)C(F)(F)F)CC/C=C/C[C@@H]1CO [Compound 5] | 82% | > 50% |  |  |  |  |  | BioSim [%] (biosimilarity) to IPP/CNRS-A017 ([1]; compound Conc 10 μM): 87%; BioSim [%] (biosimilarity) to brequinar ([1]; compound Conc 10 μM): 84%; IC50 ([2]; dose-response, n=3 ± SD, read-out: IC50 for inhibition of DHODH): 6.2 ± 3 µM; CPA fingerprint similarity to the iron chelator deferoxamine [3]: 80%; cells in S phase (analysis of CPA fingerprints) [3]: accumulation of cells in S phase; also recorded: increase in the percentage of cells in S phase |
| Cc1c(-c2ccc(-c3ccccc3F)cc2)nc2ccc(F)cc2c1C(=O)O [Brequinar, brequinar] | 89% |  | completely rescue; also recorded: full cell growth recovery | rescued normal cell proliferation |  |  |  | Ind [%] (induction) [1, 7]: 36%; biosimilarity to the fingerprint of methotrexate ([1]; full fingerprints, Figure S3A and S3B): lack of biosimilarity; BioSim [%] (biosimilarity) to myxothiazol ([1]; reference fingerprint myxothiazol 10 μM, compound Conc 10 μM): 84%; rescue of cell growth by uridine [4]: completely rescue; rescue of cell growth by dihydroorotate (DHO) ([5]; 1.5 mM DHO, 96 h, 2, 6, 7 at 10 μM, 4 at 30 μM): could not restore |
| CO/C(=C/C(N)=O)[C@H](C)[C@H](/C=C/c1csc(-c2csc([C@@H](C)/C=C/C=C/C(C)C)n2)n1)OC [Myxothiazol, myxothiazol] |  |  | only partly restored normal cell growth |  | biosimilar | suppressed the growth |  | Cell count [%] ([1]; Conc 10 μM, 20 h): 73%; Ind [%] (induction) [1, 7]: 46%; influence on cell growth (cell confluence) ([5]; listed as myxothiazol): growth arrest; influence on in vitro DHODH activity, in words [2, 9]: do not inhibit |
| COc1cc(OC)c2c(c1Cl)O[C@@]1(CC[C@@]3(C[C@H]1C)OCCc1c3[nH]c3ccc(C)cc13)C2=O [Compound 4] | 81% | 27 to 44% |  | relieved |  |  | only moderately inhibited |  |
| CN1C(=O)[C@@]2(C(=O)N(Cc3ccncc3)c3ccc(OC(F)(F)F)cc32)c2ccccc21 [Compound 2] | 90% | 27 to 44% |  | relieved |  |  | only moderately inhibited |  |
| CCCCCC[C@H]1C(=O)O[C@H](C)[C@H](NC(=O)c2cccc(NC=O)c2O)C(=O)O[C@@H](C)[C@@H]1OC(=O)CC(C)C [antimycin A] |  |  |  |  | biosimilar | growth arrest |  | influence on in vitro DHODH activity, in words [2, 9]: do not inhibit |
| Brc1ccc2[nH]c3c(c2c1)CCOC31CCCCC1 [Compound 6] | 88% | 27 to 44% |  | relieved |  |  | only moderately inhibited | BioSim [%] (biosimilarity) to IPP/CNRS-A017 ([1]; compound Conc 10 μM): 87%; BioSim [%] (biosimilarity) to brequinar ([1]; compound Conc 10 μM): 84%; CPA fingerprint similarity to the iron chelator deferoxamine [3]: 81%; cells in S phase (analysis of CPA fingerprints) [3]: accumulation of cells in S phase; also recorded: increase in the percentage of cells in S phase |
| Cc1c(Oc2ccc(F)cc2)c(OC(C)C)nn1-c1ccc(C2CC2)cn1 [Compound 1] |  |  |  |  | not biosimilar |  |  | Ind [%] (induction) ([1]; Conc 5 μM, 20 h): 10%; viability at 5 µM ([1]; Homo sapiens, U2OS, Conc 5 μM, 20 h, read-out: Cell count [%]): 105%; biosimilarity (BioSim) to IPP/CNRS-A017 [1]: not biosimilar; BioSim [%] (biosimilarity) to brequinar ([1]; compound Conc 5 μM): 39% |
| NC(=O)c1[nH]nc([C@@H]2O[C@H](CO)[C@@H](O)[C@H]2O)c1O [Pyrazofurin, pyrazofurin] | 97% |  | fully rescued |  | high biosimilarity | suppressed the growth |  | biosimilarity (BioSim) to IPP/CNRS-A017 [1]: high biosimilarity |
| COc1ccc2[nH]c3c(c2c1)CCO[C@]31CC[C@@]2(Oc3c(Cl)c(OC)cc(OC)c3C2=O)[C@H](C)C1 [Compound 3] |  | > 50% |  |  |  |  |  | viability at 3 µM ([1]; Homo sapiens, U2OS, Conc 3 μM, 20 h, read-out: Cell count [%]): 94% |
